These results are taken from publication PMC3069040, “A Conserved Cysteine Motif Is Critical for Rice Ceramide Kinase Activity and Function” (PLoS ONE, 2011).

For orientation: inhibition means the percentage by which the read-out fell short of the control. Low readings indicate a response near the control, high ones a response far below the control. Broadly, the % inhibition is the relative decrease from the control value, in per cent. Read a low % inhibition as a response near the control. Broadly, the Km is the concentration of substrate that gives half-maximal velocity.

Where only a bound is given, the exact number is not on record here.

Data set [1] concerns the target T1, OsCERK (Oryza sativa, UniProt C0LT23).
T1 construct: gene CERK; N-terminus from primer MEGGGEAL
T1 sequence (C0LT23 1-607): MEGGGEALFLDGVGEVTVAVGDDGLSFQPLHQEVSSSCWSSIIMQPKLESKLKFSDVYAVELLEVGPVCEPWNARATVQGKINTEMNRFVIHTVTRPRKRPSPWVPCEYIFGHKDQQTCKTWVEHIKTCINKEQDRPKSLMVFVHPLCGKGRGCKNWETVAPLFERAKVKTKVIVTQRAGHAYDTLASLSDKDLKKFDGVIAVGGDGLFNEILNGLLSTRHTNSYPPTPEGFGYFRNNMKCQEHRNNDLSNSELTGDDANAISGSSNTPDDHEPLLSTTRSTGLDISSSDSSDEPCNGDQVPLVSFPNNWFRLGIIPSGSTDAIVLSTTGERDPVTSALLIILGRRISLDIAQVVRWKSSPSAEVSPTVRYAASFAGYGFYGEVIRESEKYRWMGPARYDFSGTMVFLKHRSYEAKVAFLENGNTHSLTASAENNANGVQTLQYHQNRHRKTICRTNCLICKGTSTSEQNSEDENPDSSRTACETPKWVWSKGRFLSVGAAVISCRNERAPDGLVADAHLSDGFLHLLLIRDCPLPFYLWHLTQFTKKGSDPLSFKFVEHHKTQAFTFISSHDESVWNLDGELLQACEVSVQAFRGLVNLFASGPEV
In words: TLC with NBD fluorescence scan, inhibition of C6-NBD-ceramide phosphorylation. Type of data set: biochemical.

The target of data set [2] is T2, rACD5 (Arabidopsis thaliana, UniProt Q6USK2).
T2 construct: gene CERK; coding region in pET28b, His-tagged, E. coli BL21 (DE3), Ni-NTA; N-terminus from primer MEEGRDDE
T2 sequence (Q6USK2 1-608): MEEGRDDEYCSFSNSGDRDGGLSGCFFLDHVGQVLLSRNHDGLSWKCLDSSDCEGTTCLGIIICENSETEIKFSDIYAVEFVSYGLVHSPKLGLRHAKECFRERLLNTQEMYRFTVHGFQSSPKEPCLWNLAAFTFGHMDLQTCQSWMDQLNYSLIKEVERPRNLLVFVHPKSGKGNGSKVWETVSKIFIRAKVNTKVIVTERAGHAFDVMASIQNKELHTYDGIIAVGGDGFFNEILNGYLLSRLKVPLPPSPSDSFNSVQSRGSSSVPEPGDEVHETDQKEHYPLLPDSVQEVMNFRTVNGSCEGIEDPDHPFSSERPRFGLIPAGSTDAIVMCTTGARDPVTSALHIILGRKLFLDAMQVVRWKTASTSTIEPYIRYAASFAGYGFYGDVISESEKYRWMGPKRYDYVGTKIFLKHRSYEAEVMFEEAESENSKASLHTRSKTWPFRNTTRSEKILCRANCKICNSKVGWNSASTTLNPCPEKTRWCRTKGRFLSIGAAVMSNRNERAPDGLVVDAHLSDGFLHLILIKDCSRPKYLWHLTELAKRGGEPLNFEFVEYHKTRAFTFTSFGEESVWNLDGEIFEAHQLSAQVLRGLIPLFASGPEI
Description: TLC with NBD fluorescence scan, turnover. To be noted: ATP 1 mM, 15 mM MgCl2, mixed micelles, 40 °C, 30 min; labelled compound. The data set is classed as biochemical.

Substrate in data set [3]: CCCCCCCCCCCCC/C=C/[C@@H](O)[C@H](CO)NC(=O)CCCCCNc1ccc([N+](=O)[O-])c2nonc12
Description: TLC with NBD fluorescence scan, Lineweaver-Burk. Type of data set: biochemical, Oryza sativa. To be noted: ATP 1 mM, 15 mM MgCl2, Triton X-100/cardiolipin mixed micelles, Hepes pH 7.4, 40 °C, labelled compound.

Substrate in data set [4]: Nc1ncnc2c1ncn2[C@@H]1O[C@H](COP(=O)(O)OP(=O)(O)OP(=O)(O)O)[C@@H](O)[C@H]1O
Description: TLC with NBD fluorescence scan, Lineweaver-Burk. Type of data set: biochemical, Oryza sativa. As to conditions: co-substrate C6-NBD-ceramide, 15 mM MgCl2, mixed micelles, Hepes pH 7.4, 40 °C, Discussion b40 prints 36.35 µM.

`CCCCCCCCCCCCC/C=C/[C@@H](O)[C@H](CO)N(C)C` [N,N-dimethylsphingosine] yielded an inhibition at 100 µM in data set [1] of approximately 70%.
In the case of `O=C(Nc1nc2ccc(NC(=O)C34CC5CC(CC(C5)C3)C4)cc2s1)c1ccccc1` [ceramide kinase inhibitor K1], the “% inhibition at 200 μM” value in data set [1] (C6-NBD-ceramide, ATP, 15 mM MgCl2, mixed micelles, 40 °C, 0.5% ethanol or methanol as solvent) is recorded as more than 90%.
On to `CCCCCCCCCCCCC/C=C/[C@@H](O)[C@H](CO)NC(=O)CCCCCNc1ccc([N+](=O)[O-])c2nonc12` [D-erythro-C6-NBD-ceramide], for which, in data set [2], the “TLC with NBD fluorescence scan, turnover” value was “phosphorylating C6-NBD-ceramide to give C6-NBD-ceramide-1-phosphate, as did recombinant OsCERK and rACD5”.

B1: OsCERK (Oryza sativa Japonica Group) (protein)
chain: T1 sequence (C0LT23 1-607)
notes: N-terminus from primer MEGGGEAL
On to B1, for which the Km in data set [3] amounted to 4.1 µM; in data set [4], 35.36 µM.
